Assay results reported in US8258184B1, “Use of vegetable butter-based cetyl myristoleate for treating osteoarthritis and other musculoskeletal disease conditions and injuries” (Botanoceuticals, Inc., priority 2002, dated 2012).

Assays:
[1] = test system: severe arthritis caused by injuries in a horse; test: Treatment of osteoarthritis caused by injuries in a horse (Example 3, case report); type: in vivo; settings: 30-year-old mare, previous treatments given together
Text: Joint Response was tried as a last resort.

[2] = test system: arthritis in Swiss albino mice; settings: cited from earlier work
[3] = test system: arthritis in laboratory rats exposed to Freund's adjuvant; settings: cited from earlier work

Structure (SMILES) | alleviation of discomfort by previous treatments [1] | protection from arthritis [2] | protection from arthritis [3]
CCCCC1C(=O)N(c2ccccc2)N(c2ccccc2)C1=O [Butte] | not working nearly well enough |  | 
CCCC/C=C\CCCCCCCC(=O)OCCCCCCCCCCCCCCCC [CM, cetyl myristoleate] |  | protected | protected
N[C@H]1C(O)O[C@H](CO)[C@@H](O)[C@@H]1O (some centres unmarked) [Glucosamine, glucosamine] | not working nearly well enough |  | 
CS(C)(=O)=O [MSM, methylsulfonylmethane] | not working nearly well enough |  | 
